What was measured:
[1] = test system: diabetic db/db mice; assay: Diabetic nephropathy model: male diabetic db/db mice treated for 12 weeks (renal histology, immunohistochemistry, albumin excretion); assay type: in vivo, mouse; settings: for effect on fasted or post-prandial glucose levels / Podocalyxin expression (glomerular staining score 0-3): 12 weeks; for Podocalyxin expression (glomerular staining score 0-3): linagliptin 3 mg/kg/day, enalapril 20 mg/kg/day, db/db vehicle 1.59±0.2, db/+ 2.65±0.1; for glomerular mesangial matrix expansion compared with diabetic vehicle / tubulointerstitial fibrosis compared with diabetic vehicle: histology
Procedure: The expression of podocalyxin is analyzed by immunohistochemistry using a podocalyxin specific antibody. Kidney sections from male diabetic db/db mice (10 weeks old at start and treated for 3 months) in the following groups are analyzed:
Diabetic control (n=10), linagliptin 3 mg/kg (n=8), enalapril 20 mg/kg (n=10) and heterozygous control mice (n=8).
All of the evaluations of the glomerular staining intensities are done semiquantitatively by two different experts of kidney pathology blinded for the slides.
The predefined scoring gradient is 0, 1, 2, and 3. 0 means no expression, whereas 3 is given when expression is highest. Group means are compared with a non-parametric test. P values less than 0.05 are considered significant.
Diabetic nephropathy is the main cause of end-stage renal disease. This study investigated the effects of linagliptin on diabetic nephropathy in severe insulin-resistant and old db/db mice as a model for diabetic nephropathy. Male diabetic db/db mice (10 weeks) were divided into 3 groups and treated for 12 weeks with vehicle (n=10), linagliptin 3 mg/kg/day (n=8), or the angiotensin converting enzyme (ACE) inhibitor enalapril 20 mg/kg/day (n=10).
Heterozygous db/+ mice treated with vehicle were used as controls (n=8). Levels of glucose, triglycerides, insulin, cystatin C and creatinine were analyzed in serum and urine samples at baseline and monthly thereafter. Body weight, urinary albumin excretion and OGTT were monitored periodically.
Renal histology (glomerulosclerosis, tubulointerstitial fibrosis) and expression of the sialoglycoprotein podocalyxin (a marker of podocyte integrity in the glomeruli, marker for glomerular damage), glucagon-like peptide 1 receptor (GLP-1R), alpha-smooth muscle actin and type I collagen were evaluated at the end of the study.

[2] = Meta-analysis of 13 phase 3 placebo-controlled trials: renal safety and outcomes in 5466 patients with type 2 diabetes
Source text: The aim of this study was to evaluate renal safety/outcomes with linagliptin in phase 3, randomized, double-blind, placebo-controlled trials (≧12 wks).

[3] = Pooled analysis of seven placebo-controlled trials: UACR in elderly (>=65 years) T2D patients with diabetic nephropathy (set 2); assay type: in vivo, human
Procedure: (§1) Seven randomised, double-blind, placebo-controlled trials (duration 24-52 weeks) of linagliptin (5 mg q.d.) as monotherapy or add-on to various glucose-lowering background therapies had data available for urinary albumin-to-creatinine ratio (UACR) and were eligible for this analysis (n=4113). Data after 24 weeks of treatment were generated to allow pooling and two sets were defined: 1) Diabetic nephropathy in earlier stages of T2D (with and without oral glucose-lowering background therapies, such as e.g. linagliptin monotherapy, linagliptin add-on to metformin or linagliptin add-on to metformin plus a sulphonylurea, or linagliptin plus metformin initial combination): participants from four 24-week pivotal phase III trials if they had persistent albuminuria, defined as 30≦UACR≦3000 mg/g (eGFR>30 ml/min/1.73 m^2) and stable treatment with an angiotensin-converting enzyme inhibitor (ACEi) or angiotensin II receptor blocker (ARB) at baseline (ongoing treatment with ACEi or ARB); 2) Diabetic nephropathy in elderly patients (various glucose-lowering background therapies including insulin, such as e.g. linagliptin monotherapy, linagliptin add-on to metformin or linagliptin add-on to metformin plus a sulphonylurea, or linagliptin plus metformin initial combination, or linagliptin in combination with basal insulin): patients from all seven trials, fulfilling UACR criteria 30≦UACR≦3000 mg/g (eGFR>30 ml/min/1.73 m^2) and aged ≧65 years (with or without ongoing treatment with ACEi or ARB). The endpoint in both sets was the percentage change in geometric mean UACR after 24 weeks.

[4] = Pooled analysis of four 24-week placebo-controlled trials: albuminuria (UACR) in T2D patients with early diabetic nephropathy on stable ACE/ARB (set 1); assay type: in vivo, human
Source text: Despite optimal therapy, people with type 2 diabetes (T2D) remain at high risk for kidney damage, manifest as albuminuria, and many develop progressive renal failure. Further, despite optimal therapy with inhibitors of the renin-angiotensin-aldosterone systeme (RAAS), patients with type 2 diabetes mellitus (T2DM) remain at an increased risk of progressive renal failure and cardiovascular disease, for which album inuria has emerged as a predictive biomarker. Linagliptin, a DPP-4 inhibitor, has previously shown evidence of albumin lowering on top of telmisartan in mice. We explored the clinical effect of linagliptin on albuminuria in T2D patients with early diabetic nephropathy. Four randomized, double-blind, 24-week, placebo-controlled trials of linagliptin (5 mg qd) on no, mono, or dual oral glucose-lowering background therapy (such as e.g. linagliptin monotherapy, linagliptin add-on to metformin or linagliptin add-on to metformin plus a sulphonylurea, or linagliptin plus metformin initial combination) had data available for urinary albumin-to-creatinine ratio (UACR) and were pooled for analysis (n=2472). Participants were included in this analysis if they had: i) 30≦UACR≦3000 mg/g creatinine; ii) stable treatment with ACE/ARBs ≧4 weeks prior and during the trial; and iii) eGFR>30 ml/min/1.73 m^2. The endpoint was the percentage change in geometric mean UACR. In this analysis, 492 (19.9%) patients met UACR and eGFR thresholds of whom 46% received stable ACE/ARB therapy (linagliptin n=168; placebo n=59). Mean baseline A1C and median UACR were 8.2% vs 8.5% and 76 vs 78 mg/g creatinine for the linagliptin and placebo groups, respectively. After 24 weeks, placebo-corrected changes in A1C and FPG were −0.71% and −26 mg/dl, respectively (both p<0.0001). […] Overall, kidney function and blood pressure were unchanged although more patients on placebo received new anti-hypertensive drugs (17% vs 11% with linagliptin). […] Linagliptin may have kidney-protective properties beyond glucose-lowering effects. This protective effect may be independent of race. Linagliptin may be useful for treating or lowering albuminuria on top of standard of care of angiotensin-converting enzyme (ACE) inhibition or angiotensin II receptor blockade (ARB) in T2DM patients with early diabetic nephropathy.
as §1

[5] = Safety and tolerability in people with type 2 diabetes
[6] = test system: rats with 5/6 nephrectomy; assay: Rat model of chronic kidney disease (5/6 nephrectomy), 130 days; settings: for glomerulosclerosis (glomerulosclerosic index) / decrease of glomerular size vs PBO-treated 5/6 NX rats / decrease of interstitial fibrosis vs PBO-treated 5/6 NX rats: 130 days; for osteopontin vs PBO-treated 5/6 NX rats: plasma biomarker
[7] = Pharmacokinetics of BI 1356, multiple oral doses once daily for 12 days in patients with type 2 diabetes; settings: for feT,ss: steady state (Day 12); for feT,ss / fe0-24: gMean; for fe0-24: fraction excreted in urine
[8] = linagliptin 5 mg qd, after 24 weeks, set 1
[9] = LIN 0.083 mg/kg in chow, TEL 5 mg/kg/d in drinking water

Compound: CCOC(=O)[C@H](CCc1ccccc1)N[C@@H](C)C(=O)N1CCC[C@H]1C(=O)O [enalapril, reference compound]
- effect on fasted or post-prandial glucose levels [1]: limited effects
- Podocalyxin expression (glomerular staining score 0-3) [1]: 2.4±0.2
- glomerular mesangial matrix expansion compared with diabetic vehicle ([1]; p<0.05): reduced almost to control levels
- tubulointerstitial fibrosis compared with diabetic vehicle ([1]; p<0.05): reduced almost to control levels

Compound: CC#CCn1c(N2CCC[C@@H](N)C2)nc2c1c(=O)n(Cc1nc(C)c3ccccc3n1)c(=O)n2C [linagliptin]
- patients with composite renal endpoint events (number) ([2]; linagliptin 5 mg qd, n=3505, placebo 306): 448 patients
- patients with composite renal endpoint events (proportion) ([2]; linagliptin 5 mg qd, placebo 15.6%): 12.8%
- HR for the composite endpoint ([2]; patients <65 yrs): 0.77
- HR for the composite endpoint ([2]; patients >65 yrs): 1.04
- RR change: ARF ([2]; vs placebo): −7%
- RR change: death ([2]; vs placebo): −23%
- RR change: macroalbuminuria ([2]; vs placebo): −12%
- RR change: microalbuminuria ([2]; vs placebo): −15%
- RR change: new onset of CKD ([2]; vs placebo): −56%
- RR change: worsening of CKD ([2]; vs placebo): −24%
- blood pressure and renal function ([3]; all seven studies): not affected to a clinically meaningful extent
- treatment duration at which overall UACR effect occurs ([3]; as early as): 12 weeks
- reduction of UACR versus placebo (trend) ([3]; linagliptin 5 mg q.d., 24 weeks, set 2): −25%
- lowering of adjusted UACR ([3]; linagliptin 5 mg q.d., 24 weeks, set 2, aged >=65 years): 30%
- kidney function and blood pressure ([4]; 24 weeks): unchanged
- lowering of adjusted UACR (geometric mean) ([4]; linagliptin 5 mg qd, 24 weeks, on stable ACE/ARB, set 1): 33%
- between group difference vs placebo in UACR ([4]; linagliptin 5 mg qd, 24 weeks, set 1): −29%
- placebo-corrected change in A1C (HbA1c) [4, 8]: −0.71%
- placebo-corrected change in FPG [4, 8]: -26 mg/dL
- placebo-corrected change in fasting plasma glucose [4, 8]: -1.4 mmol/L
- safety and tolerability [5]: placebo-like
- expression of α-smooth muscle actin-positive myofibroblasts in interstitium and glomeruli [1]: normalized
- effect on fasted or post-prandial glucose levels [1]: limited effects
- Podocalyxin expression (glomerular staining score 0-3) [1]: 2.3±0.2
- loss of podocytes (podocalyxin staining) ([1]; blood glucose independent): significantly reduces
- glomerular mesangial matrix expansion compared with diabetic vehicle ([1]; p<0.05): reduced almost to control levels
- tubulointerstitial fibrosis compared with diabetic vehicle ([1]; p<0.05): reduced almost to control levels
- GLP-1R expression in the glomeruli (immunohistochemical staining) ([1]; linagliptin 3 mg/kg/day 12 weeks, vehicle db/db 1.67±0.07, healthy 2.15±0.1): 1.90±0.04
- Urinary albumin excretion rates compared with enalapril-treated mice ([1]; p<0.05): significantly decreased
- tubulointerstitial fibrosis compared with enalapril-treated mice ([1]; p<0.05): significantly decreased
- Blood pressure lowering ([6]; 5/6 NX rats): unaffected
- glomerulosclerosis (glomerulosclerosic index) ([6]; 5/6 NX rats): trend towards decreased
- decrease of glomerular size vs PBO-treated 5/6 NX rats [6, 9]: 18%
- decrease of interstitial fibrosis vs PBO-treated 5/6 NX rats [6, 9]: 48%
- osteopontin vs PBO-treated 5/6 NX rats [6]: decreases
- plasma concentration of B2M vs PBO-treated 5/6 NX rats ([6]; rat, in vivo): decreases
- plasma concentration of TIMP-1 vs PBO-treated 5/6 NX rats ([6]; rat, in vivo): decreases
- feT,ss ([7]; 1 mg oral once daily): 3.34%
- feT,ss ([7]; 2.5 mg oral once daily): 3.06%
- fe0-24 ([7]; 2.5 mg oral once daily): 0.139%
- feT,ss ([7]; 5 mg oral once daily): 6.27%
- fe0-24 ([7]; 5 mg oral once daily): 0.453%
- feT,ss ([7]; 10 mg oral once daily): 3.22%
- fe0-24 ([7]; 10 mg oral once daily): 0.919%
- mean accumulation ratio RA,AUC ([7]; doses above 1 mg once daily): ≤ 1.4
- excretion of unchanged drug ([7]; human, in vivo): primarily excreted unchanged via the bile
- excretion via the kidney ([7]; therapeutic oral dose levels): < 7 % of the administered oral dose
- main route of excretion ([7]; therapeutic oral dose levels): mainly excreted via the liver

Compound: CCCc1nc2c(C)cc(-c3nc4ccccc4n3C)cc2n1Cc1ccc(-c2ccccc2C(=O)O)cc1 [telmisartan, reference compound]
- Blood pressure lowering ([6]; 5/6 NX rats): 31 mmHg
- TGF-β expression ([6]; 5/6 NX rats): significantly decreases
- glomerulosclerosis (glomerulosclerosic index) ([6]; 5/6 NX rats): trend towards decreased
- decrease of urinary albumin/creatinine ratio vs PBO-treated 5/6 NX rats [6, 9]: 92%
- decrease of glomerular size vs PBO-treated 5/6 NX rats [6, 9]: not significantly
- decrease of interstitial fibrosis vs PBO-treated 5/6 NX rats [6, 9]: 24%
- osteopontin vs PBO-treated 5/6 NX rats [6]: significantly decreases

From patent US9526730B2, “Use of a DPP-4 inhibitor in podocytes related disorders and/or nephrotic syndrome” (Boehringer Ingelheim International GmbH, priority 2012, dated 2016)
